# Test results as given in PubChem BioAssay AID1259407 (Chemical Carcinogenesis Research Information System (CCRIS), 2018).
# Active and inactive are the calls of the source. The rule behind the calls is not given here.
# Tested on: CCRIS mutagenicity, Ames/micronucleus/aberration tests
# Experiment: CCRIS mutagenicity studies
structure (smiles),measurement,setting,value
C#C[C@]1(O)CC[C@H]2[C@@H]3CCc4cc(O)ccc4[C@H]3CC[C@@]21C,mutagenic call,"End Point: IN VITRO CHROMOSOMAL ABERRATIONS, Test System: CHINESE HAMSTER CELL DON (22;XY), Metabolic Activation: NONE",active; positive (ploidy changes)
same,mutagenic call,"End Point: IN VITRO CHROMOSOMAL ABERRATIONS, Test System: CHO CELLS, Metabolic Activation: NONE",active; positive
same,mutagenic call,"End Point: IN VITRO CHROMOSOMAL ABERRATIONS, Test System: HUMAN (FEMALE) PERIPHERAL BLOOD LYMPHOCYTES, Metabolic Activation: NONE",inactive; negative
same,mutagenic call,"End Point: IN VITRO CHROMOSOMAL ABERRATIONS, Test System: HUMAN (FEMALE) PERIPHERAL BLOOD LYMPHOCYTES, Metabolic Activation: RAT, LIVER, S-9, NO NADP",inactive; negative
same,mutagenic call,"End Point: IN VITRO CHROMOSOMAL ABERRATIONS, Test System: HUMAN (FEMALE) PERIPHERAL BLOOD LYMPHOCYTES, Metabolic Activation: RAT, LIVER, S-9, WITH NADP ADDITION",active; positive (structural changes)
same,mutagenic call,"End Point: IN VITRO CHROMOSOMAL ABERRATIONS, Test System: HUMAN PERIPHERAL LYMPHOCYTES, Metabolic Activation: NONE",inactive; negative
same,mutagenic call,"End Point: IN VITRO CHROMOSOMAL ABERRATIONS, Test System: HUMAN PERIPHERAL LYMPHOCYTES, Metabolic Activation: RAT, LIVER, S-9, AROCLOR 1254",inactive; negative
same,mutagenic call,"End Point: IN VIVO MICRONUCLEUS, Test System: BONE MARROW POLYCHROMATIC ERYTHROCYTES, Species: MOUSE, Strain/Sex: NMRI/FEMALE, Route: INTRAGASTRIC",inactive; negative
same,mutagenic call,"End Point: IN VIVO MICRONUCLEUS, Test System: BONE MARROW POLYCHROMATIC ERYTHROCYTES, Species: MOUSE, Strain/Sex: SWISS ALBINO, Route: ORAL (GAVAGE)",inactive; negative
same,mutagenic call,"Test System: AMES SALMONELLA TYPHIMURIUM, Strain/Indicator: TA97, Metabolic Activation: HAMSTER, LIVER, S-9, AROCLOR 1254 (10 OR 30%), Method: PREINCUBATION",inactive; negative
same,mutagenic call,"Test System: AMES SALMONELLA TYPHIMURIUM, Strain/Indicator: TA97, Metabolic Activation: NONE, Method: PREINCUBATION",inactive; negative
same,mutagenic call,"Test System: AMES SALMONELLA TYPHIMURIUM, Strain/Indicator: TA97, Metabolic Activation: RAT, LIVER, S-9, AROCLOR 1254 (10%), Method: PREINCUBATION",inactive; negative
same,mutagenic call,"Test System: AMES SALMONELLA TYPHIMURIUM, Strain/Indicator: TA97, Metabolic Activation: RAT, LIVER, S-9, AROCLOR 1254 (30%), Method: PREINCUBATION",inactive; negative
same,mutagenic call,"Test System: AMES SALMONELLA TYPHIMURIUM, Strain/Indicator: TA98, Metabolic Activation: HAMSTER, LIVER, S-9, AROCLOR 1254 (10 OR 30%), Method: PREINCUBATION",inactive; negative
same,mutagenic call,"Test System: AMES SALMONELLA TYPHIMURIUM, Strain/Indicator: TA98, Metabolic Activation: MOUSE, LIVER, S-9, Method: STANDARD PLATE",inactive; negative
same,mutagenic call,"Test System: AMES SALMONELLA TYPHIMURIUM, Strain/Indicator: TA98, Metabolic Activation: NONE",inactive; negative
same,mutagenic call,"Test System: AMES SALMONELLA TYPHIMURIUM, Strain/Indicator: TA98, Metabolic Activation: NONE, Method: PREINCUBATION",inactive; negative
same,mutagenic call,"Test System: AMES SALMONELLA TYPHIMURIUM, Strain/Indicator: TA98, Metabolic Activation: NONE, Method: STANDARD PLATE",inactive; negative
same,mutagenic call,"Test System: AMES SALMONELLA TYPHIMURIUM, Strain/Indicator: TA98, Metabolic Activation: RAT, LIVER, S-9, AROCLOR 1254 (10%), Method: PREINCUBATION",inactive; negative
same,mutagenic call,"Test System: AMES SALMONELLA TYPHIMURIUM, Strain/Indicator: TA98, Metabolic Activation: RAT, LIVER, S-9, AROCLOR 1254 (30%), Method: PREINCUBATION",inactive; negative
same,mutagenic call,"Test System: AMES SALMONELLA TYPHIMURIUM, Strain/Indicator: TA98, Metabolic Activation: RAT, LIVER, S-9, AROCLOR 1254, Method: STANDARD PLATE",inactive; negative
same,mutagenic call,"Test System: AMES SALMONELLA TYPHIMURIUM, Strain/Indicator: TA98, Metabolic Activation: S-9",inactive; negative
same,mutagenic call,"Test System: AMES SALMONELLA TYPHIMURIUM, Strain/Indicator: TA100, Metabolic Activation: HAMSTER, LIVER, S-9, AROCLOR 1254 (10 OR 30%), Method: PREINCUBATION",inactive; negative
same,mutagenic call,"Test System: AMES SALMONELLA TYPHIMURIUM, Strain/Indicator: TA100, Metabolic Activation: MOUSE, LIVER, S-9, Method: STANDARD PLATE",inactive; negative
same,mutagenic call,"Test System: AMES SALMONELLA TYPHIMURIUM, Strain/Indicator: TA100, Metabolic Activation: NONE",inactive; negative
same,mutagenic call,"Test System: AMES SALMONELLA TYPHIMURIUM, Strain/Indicator: TA100, Metabolic Activation: NONE, Method: PREINCUBATION",inactive; negative
same,mutagenic call,"Test System: AMES SALMONELLA TYPHIMURIUM, Strain/Indicator: TA100, Metabolic Activation: NONE, Method: STANDARD PLATE",inactive; negative
same,mutagenic call,"Test System: AMES SALMONELLA TYPHIMURIUM, Strain/Indicator: TA100, Metabolic Activation: RAT, LIVER, S-9, AROCLOR 1254 (10%), Method: PREINCUBATION",inactive; negative
same,mutagenic call,"Test System: AMES SALMONELLA TYPHIMURIUM, Strain/Indicator: TA100, Metabolic Activation: RAT, LIVER, S-9, AROCLOR 1254 (30%), Method: PREINCUBATION",inactive; negative
same,mutagenic call,"Test System: AMES SALMONELLA TYPHIMURIUM, Strain/Indicator: TA100, Metabolic Activation: RAT, LIVER, S-9, AROCLOR 1254, Method: STANDARD PLATE",inactive; negative
same,mutagenic call,"Test System: AMES SALMONELLA TYPHIMURIUM, Strain/Indicator: TA100, Metabolic Activation: S-9",inactive; negative
same,mutagenic call,"Test System: AMES SALMONELLA TYPHIMURIUM, Strain/Indicator: TA1535, Metabolic Activation: HAMSTER, LIVER, S-9, AROCLOR 1254 (10 OR 30%), Method: PREINCUBATION",inactive; negative
same,mutagenic call,"Test System: AMES SALMONELLA TYPHIMURIUM, Strain/Indicator: TA1535, Metabolic Activation: MOUSE, LIVER, S-9, Method: STANDARD PLATE",inactive; negative
same,mutagenic call,"Test System: AMES SALMONELLA TYPHIMURIUM, Strain/Indicator: TA1535, Metabolic Activation: NONE",inactive; negative
same,mutagenic call,"Test System: AMES SALMONELLA TYPHIMURIUM, Strain/Indicator: TA1535, Metabolic Activation: NONE, Method: PREINCUBATION",inactive; negative
same,mutagenic call,"Test System: AMES SALMONELLA TYPHIMURIUM, Strain/Indicator: TA1535, Metabolic Activation: NONE, Method: STANDARD PLATE",inactive; negative
same,mutagenic call,"Test System: AMES SALMONELLA TYPHIMURIUM, Strain/Indicator: TA1535, Metabolic Activation: RAT, LIVER, S-9, AROCLOR 1254 (10%), Method: PREINCUBATION",inactive; negative
same,mutagenic call,"Test System: AMES SALMONELLA TYPHIMURIUM, Strain/Indicator: TA1535, Metabolic Activation: RAT, LIVER, S-9, AROCLOR 1254 (30%), Method: PREINCUBATION",inactive; negative
same,mutagenic call,"Test System: AMES SALMONELLA TYPHIMURIUM, Strain/Indicator: TA1535, Metabolic Activation: RAT, LIVER, S-9, AROCLOR 1254, Method: STANDARD PLATE",inactive; negative
same,mutagenic call,"Test System: AMES SALMONELLA TYPHIMURIUM, Strain/Indicator: TA1535, Metabolic Activation: S-9",inactive; negative
same,mutagenic call,"Test System: AMES SALMONELLA TYPHIMURIUM, Strain/Indicator: TA1537, Metabolic Activation: MOUSE, LIVER, S-9, Method: STANDARD PLATE",inactive; negative
same,mutagenic call,"Test System: AMES SALMONELLA TYPHIMURIUM, Strain/Indicator: TA1537, Metabolic Activation: NONE",inactive; negative
same,mutagenic call,"Test System: AMES SALMONELLA TYPHIMURIUM, Strain/Indicator: TA1537, Metabolic Activation: NONE, Method: STANDARD PLATE",inactive; negative
same,mutagenic call,"Test System: AMES SALMONELLA TYPHIMURIUM, Strain/Indicator: TA1537, Metabolic Activation: RAT, LIVER, S-9, AROCLOR 1254, Method: STANDARD PLATE",inactive; negative
same,mutagenic call,"Test System: AMES SALMONELLA TYPHIMURIUM, Strain/Indicator: TA1537, Metabolic Activation: S-9",inactive; negative
same,mutagenic call,"Test System: AMES SALMONELLA TYPHIMURIUM, Strain/Indicator: TA1538, Metabolic Activation: MOUSE, LIVER, S-9, Method: STANDARD PLATE",inactive; negative
same,mutagenic call,"Test System: AMES SALMONELLA TYPHIMURIUM, Strain/Indicator: TA1538, Metabolic Activation: NONE, Method: STANDARD PLATE",inactive; negative
same,mutagenic call,"Test System: AMES SALMONELLA TYPHIMURIUM, Strain/Indicator: TA1538, Metabolic Activation: RAT, LIVER, S-9, AROCLOR 1254, Method: STANDARD PLATE",inactive; negative
same,mutagenic call,"Test System: E. COLI, Strain/Indicator: WP2 UVRA, Metabolic Activation: HAMSTER, LIVER, S-9, AROCLOR 1254, Method: STANDARD PLATE",inactive; negative
same,mutagenic call,"Test System: E. COLI, Strain/Indicator: WP2 UVRA, Metabolic Activation: HAMSTER, LIVER, S-9, Method: STANDARD PLATE",inactive; negative
same,mutagenic call,"Test System: E. COLI, Strain/Indicator: WP2 UVRA, Metabolic Activation: MOUSE, LIVER, S-9, AROCLOR 1254, Method: STANDARD PLATE",inactive; negative
same,mutagenic call,"Test System: E. COLI, Strain/Indicator: WP2 UVRA, Metabolic Activation: MOUSE, LIVER, S-9, Method: STANDARD PLATE",inactive; negative
same,mutagenic call,"Test System: E. COLI, Strain/Indicator: WP2 UVRA, Metabolic Activation: NONE",inactive; negative
same,mutagenic call,"Test System: E. COLI, Strain/Indicator: WP2 UVRA, Metabolic Activation: NONE, Method: STANDARD PLATE",inactive; negative
same,mutagenic call,"Test System: E. COLI, Strain/Indicator: WP2 UVRA, Metabolic Activation: RAT, LIVER, S-9, AROCLOR 1254, Method: STANDARD PLATE",inactive; negative
same,mutagenic call,"Test System: E. COLI, Strain/Indicator: WP2 UVRA, Metabolic Activation: RAT, LIVER, S-9, Method: STANDARD PLATE",inactive; negative
same,mutagenic call,"Test System: E. COLI, Strain/Indicator: WP2 UVRA, Metabolic Activation: S-9",inactive; negative
